Assay results from ChEMBL document CHEMBL1759934, “Virtual screening-driven identification of human carbonic anhydrase inhibitors incorporating an original, new pharmacophore” (Bioorg Med Chem Lett, 2011).

How the values were obtained:
Carbonic anhydrase 1 = Carbonic anhydrase 1 (Homo sapiens, UniProt P00915); test: Inhibition of human carbonic anhydrase 1 after 6 hrs by Lineweaver-Burk plot analysis
Carbonic anhydrase 2 = Carbonic anhydrase 2 (Homo sapiens, UniProt P00918); test: Inhibition of human carbonic anhydrase 2 after 6 hrs by Lineweaver-Burk plot analysis

Chain of Carbonic anhydrase 1 (P00915 whole entry): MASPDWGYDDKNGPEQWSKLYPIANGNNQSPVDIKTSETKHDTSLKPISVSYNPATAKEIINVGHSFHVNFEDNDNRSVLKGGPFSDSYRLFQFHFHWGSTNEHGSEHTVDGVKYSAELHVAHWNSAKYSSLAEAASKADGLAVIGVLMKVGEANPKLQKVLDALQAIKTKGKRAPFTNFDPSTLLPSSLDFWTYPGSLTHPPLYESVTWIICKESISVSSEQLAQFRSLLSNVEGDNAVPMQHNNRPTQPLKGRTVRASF

Ki (Carbonic anhydrase 1): 410 µM
Ki (Carbonic anhydrase 2): 9 µM
SMILES: Cc1ccc(C(=O)C(O)(O)C(F)(F)F)cc1
